From patent US20230295164A1, “COMPOUNDS HAVING ANTIBACTERIAL ACTIVITY” (The Trustees of Princeton University, priority 2020, published 2023)
Values after ≈ are worked out from the molar mass of the structure shown.

Assays:
Assay in all cases: MIC testing, broth microdilution in CAMHB
Assay type in all cases: cell-based
[1] = system: Salmonella typhimurium, CMCC 50115; details: 37° C., 18-20 hr, lowest concentration that completely inhibits visible growth; for MIC: Salmonella enterica, read-out: Compound MICs, Salmonella typhimurium, CMCC 50115
Protocol: (§1) Compounds 1-71 were subsequently tested to determine MICs of the compounds relative to the following five species/strains of bacteria: Staphylococcus aureus, NRS384; Enterococcus faecalis, ATCC 51575; Salmonella typhimurium, CMCC 50115; Escherichia coli, ATCC BAA-198; and Acinetobacter baumannii, ATCC 17978. MIC testing of compounds was conducted according to the following protocol.
(§2) For each strain to be tested, made fresh streaks onto CAMHA from −80° C. glycerol stocks.
(§3) • CAMHB: Dissolved 22 g of the powder per 1 L of purified water. Mixed well. Autoclaved at 121° C. for 10 minutes. Stored at room temperature (RT) for no more than 1 week. • Saline: Dissolved 9 g of the powder per 1 L of purified water. Mixed well. Autoclaved at 121° C. for 30 minutes. Stored at room temperature (RT) for no more than 1 week.
(§4) Prepared the stock solutions of the tested compounds.
(§5) For compounds: • a) Dispensed 20 ul compound to the wells in column 1, and 20 ul DMSO to the wells in column 2 to 12; • b) Diluted the compounds by transferring 10 ul compounds from column 1 to 20 ul DMSO in column 2; mix with pipette. • c) Repeated until column 11 to get 3×serial dilutions. Column 12 was the DMSO control.
(§6) A multichannel pipette was used to deliver 1 μl of the diluted compound into each well of the corresponding daughter plate.
(§7) Scraped 4-8 single colonies from an agar plate into 5 ml saline in a 14 ml Falcon conical tube. Vortexed the tube to suspend the bacteria. Adjusted the turbidity to ˜0.2 (corresponding to 0.5 McFarland) with an Ultrospec 10 Cell density meter.
(§8) The strain suspension was diluted 200-fold in CAMHB medium and dispense into a sterile reservoir. A multichannel pipette was then used to deliver 99 μl of the diluted inocula into each well of the corresponding daughter plate.
(§9) Incubate the daughter plates at 37° C., 85% humidity for 18-20 hr.
(§10) A magnifying mirror device was used for ease of scoring the presence or absence of growth in the wells. 96-well micro-plates were photographed.

[2] = system: Acinetobacter baumannii, ATCC 17978; details: 18-20 hr, lowest concentration that completely inhibits visible growth; for MIC: Acinetobacter baumannii, ATCC17978, 37° C., read-out: Compound MICs, Acinetobacter baumannii, ATCC 17978; for Compound MICs, Acinetobacter baumannii, ATCC 17978: 37° C.
Protocol: as §1, §2, §3, §4, §5, §6, §7, §8, §9, §10

[3] = system: Enterococcus faecalis, ATCC 51575; details: 18-20 hr, lowest concentration that completely inhibits visible growth; for MIC: Enterococcus faecalis, ATCC51575, 37° C., read-out: Compound MICs, Enterococcus faecalis, ATCC 51575; for Compound MICs, Enterococcus faecalis, ATCC 51575: 37° C.
Protocol: as §1, §2, §3, §4, §5, §6, §7, §8, §9, §10

[4] = system: Staphylococcus aureus, NRS384; details: 18-20 hr, lowest concentration that completely inhibits visible growth; for MIC: Staphylococcus aureus, NRS384, 37° C., read-out: Compound MICs, Staphylococcus aureus, NRS384; for Compound MICs, Staphylococcus aureus, NRS384: 37° C.
Protocol: as §1, §2, §3, §4, §5, §6, §7, §8, §9, §10

[5] = system: Escherichia coli, ATCC BAA-198; details: 18-20 hr, lowest concentration that completely inhibits visible growth; for MIC: Escherichia coli, ATCCBAA198, 37° C., read-out: Compound MICs, Escherichia coli, ATCC BAA-198; for Compound MICs, Escherichia coli, ATCC BAA-198: 37° C.
Protocol: as §1, §2, §3, §4, §5, §6, §7, §8, §9, §10

SMILES	MIC [1] [µg/mL]	MIC [2] [µg/mL]	MIC [3] [µg/mL]	MIC [4] [µg/mL]	MIC [5] [µg/mL]	Compound MICs, Salmonella typhimurium, CMCC 50115 [1] [µg/mL]	Compound MICs, Acinetobacter baumannii, ATCC 17978 [2] [µg/mL]	Compound MICs, Enterococcus faecalis, ATCC 51575 [3] [µg/mL]	Compound MICs, Staphylococcus aureus, NRS384 [4] [µg/mL]	Compound MICs, Escherichia coli, ATCC BAA-198 [5] [µg/mL]
Nc1nc(N)c2c(ccc3c2ccn3C/C=C/c2ccccc2)n1 [Compound 4]	0.79 (≈ 2.5 µM)	7.11 (≈ 22.5 µM)	0.03 (≈ 0.0951 µM)	0.03 (≈ 0.0951 µM)	7.11 (≈ 22.5 µM)	–	–	–	–	–
CC(C)C#Cc1ccc(Cn2ccc3c4c(N)nc(NC5CC5)nc4ccc32)cc1 [Compound 17]	–	–	–	–	–	7.11	21.3	0.79	2.37	21.3
Nc1nc(N)c2c(ccc3c2ccn3Cc2ccnc(F)c2)n1 [Compound 56]	–	–	–	–	–	0.03	2.37	0.01	0.03	7.11
Nc1nc(N)c2c(ccc3c2ccn3Cc2ccc(F)c(F)c2)n1 [Compound 13]	0.088 (≈ 0.271 µM)	2.37 (≈ 7.29 µM)	0.01 (≈ 0.0307 µM)	0.088 (≈ 0.271 µM)	7.11 (≈ 21.9 µM)	–	–	–	–	–
Nc1nc(N)c2c(ccc3c2ccn3Cc2ccc3c(c2)OCO3)n1 [Compound 69]	–	–	–	–	–	0.26	7.11	0.03	0.09	2.37
COc1ccc(Cn2ccc3c4c(N)nc(N)nc4ccc32)c(Cl)c1 [Compound 65]	–	–	–	–	–	0.26	7.11	0.01	0.09	7.11
Nc1nc(N)c2c(ccc3c2ccn3Cc2cccc(Oc3ccccc3)c2)n1 [Compound 5]	0.79 (≈ 2.07 µM)	7.11 (≈ 18.6 µM)	0.03 (≈ 0.0786 µM)	0.26 (≈ 0.682 µM)	7.11 (≈ 18.6 µM)	–	–	–	–	–
C#Cc1ccc(Cn2ccc3c4c(N)nc(NC5CC5)nc4ccc32)cc1 [Compound 9]	2.37 (≈ 6.71 µM)	21.3 (≈ 60.3 µM)	0.26 (≈ 0.736 µM)	0.79 (≈ 2.24 µM)	21.3 (≈ 60.3 µM)	–	–	–	–	–
Nc1nc(N)c2c(ccc3c2ccn3CCc2ccc(F)cc2)n1 [Compound 39]	–	–	–	–	–	2.37	21.3	0.09	0.79	7.11
Nc1nc(N)c2ccc(NCc3ccc(F)cc3)cc2n1 [Compound 64]	–	–	–	–	–	64	>64	21.3	7.11	64
CC[Si](C#Cc1ccc(CNc2nc(N)nc3ccc4c(ccn4Cc4ccc(C#C[Si](CC)(CC)CC)cc4)c23)cc1)(CC)CC [Compound 27]	–	–	–	–	–	>64	>64	>64	>64	>64
Nc1nc(N)c2c(ccc3c2ccn3Cc2ccc(-c3ccccn3)cc2)n1 [Compound 61]	–	–	–	–	–	0.26	7.11	0.03	0.09	7.11
Nc1nc(N)c2c(n1)c(Br)cc1c2ccn1Cc1ccc(F)cc1 [Compound 46]	–	–	–	–	–	2.37	7.11	≤0.001	0.79	>64
Nc1nc(NC2CC2)nc2ccc3c(ccn3Cc3ccc(C#Cc4ccccc4)cc3)c12 [Compound 19]	–	–	–	–	–	21.3	>64	0.79	2.37	>64
COc1ccc(-c2cc3c(ccn3Cc3ccc(F)cc3)c3c(N)nc(N)nc23)cc1 [Compound 41]	–	–	–	–	–	0.79	21.3	0.09	2.37	64
Nc1nc(N)c2c(ccc3c2ccn3Cc2ccc(C(F)(F)F)nc2)n1 [Compound 50]	–	–	–	–	–	0.03	7.11	0.003	0.09	7.11
C#Cc1ccc(Cn2ccc3c4c(N)nc(N)nc4c(Br)cc32)cc1 [Compound 47]	–	–	–	–	–	2.37	>64	0.003	0.09	>64
Nc1nc(N)c2c(ccc3c2ccn3CC2CCCC2)n1 [Compound 11]	0.79 (≈ 2.81 µM)	7.11 (≈ 25.3 µM)	0.03 (≈ 0.107 µM)	0.088 (≈ 0.313 µM)	21.3 (≈ 75.7 µM)	–	–	–	–	–
COc1cc(Cn2ccc3c4c(N)nc(N)nc4ccc32)cc(OC)c1OC [Compound 71]	0.79 (≈ 2.08 µM)	7.11 (≈ 18.7 µM)	0.01 (≈ 0.0264 µM)	0.03 (≈ 0.0791 µM)	2.37 (≈ 6.25 µM)	–	–	–	–	–
N#Cc1cncc(Cn2ccc3c4c(N)nc(N)nc4ccc32)c1 [Compound 53]	–	–	–	–	–	0.26	64	0.26	0.26	21.3
CC(C)c1ccc(Cn2ccc3c4c(N)nc(N)nc4ccc32)cc1 [Compound 8]	0.26 (≈ 0.784 µM)	0.79 (≈ 2.38 µM)	0.03 (≈ 0.0905 µM)	0.088 (≈ 0.266 µM)	2.37 (≈ 7.15 µM)	–	–	–	–	–
Nc1nc(N)c2c(n1)c(-c1ccc(F)cc1)cc1c2ccn1Cc1ccc(F)cc1 [Compound 52]	–	–	–	–	–	21.3	>64	2.37	7.11	>64
CC#Cc1ccc(Cn2ccc3c4c(N)nc(N)nc4ccc32)cc1 [Compound 25]	–	–	–	–	–	0.79	21.3	0.09	0.26	7.11
N#Cc1ccc(Cn2ccc3c4c(N)nc(N)nc4ccc32)s1 [Compound 57]	–	–	–	–	–	0.09	7.11	0.03	0.09	7.11
CC(C)C#Cc1ccc(Cn2ccc3c4c(N)nc(N)nc4ccc32)cc1 [Compound 15]	–	–	–	–	–	2.37	21.3	0.09	0.26	7.11
Nc1nc(NCCO)c2c(ccc3c2ccn3Cc2ccc(-c3ccccc3)cc2)n1 [Compound 2]	> 64	7.11 (≈ 17.4 µM)	2.37 (≈ 5.79 µM)	2.37 (≈ 5.79 µM)	64 (≈ 156 µM)	–	–	–	–	–
Nc1nc(N)c2c(ccc3c2ccn3CC#Cc2ccccc2)n1 [Compound 3]	0.79 (≈ 2.52 µM)	7.11 (≈ 22.7 µM)	0.03 (≈ 0.0957 µM)	0.26 (≈ 0.83 µM)	7.11 (≈ 22.7 µM)	–	–	–	–	–
